From ChEMBL document CHEMBL5113408, “Design, synthesis and antitumour activity of novel 5(6)-amino-benzimidazolequinones containing a fused morpholine” (Eur J Med Chem, 2022)

Columns and labels:
Type in all cases: functional, cell-based
[1] = tested on: HeLa; experiment: Antiproliferative activity against human HeLa cells assessed as inhibition of cell growth by SRB assay
[2] = tested on: MCF7; experiment: Antiproliferative activity against human MCF7 cells assessed as inhibition of cell growth by SRB assay
[3] = tested on: MGC-803; experiment: Antiproliferative activity against human MGC-803 cells assessed as inhibition of cell growth by SRB assay
[4] = tested on: ECa-109 cell line; experiment: Antiproliferative activity against human EC109 cells assessed as inhibition of cell growth by SRB assay

SMILES | IC50 [1] [µM] | IC50 [2] [µM] | IC50 [3] [µM] | IC50 [4] [µM]
COc1cccc(NC2=CC(=O)c3c(nc4n3C[C@@H]([C@H](O)CO)OC4)C2=O)c1 | 6.14 | 6.61 | 3.58 | 6.95
CCOc1ccccc1NC1=CC(=O)c2c(nc3n2[C@H]2OC[C@@H](O)[C@H]2OC3)C1=O | 8.3 | > 4 | 2.83 | 4.32
O=C1C(NC2CCCCC2)=CC(=O)c2c1nc1n2[C@H]2OC[C@@H](O)[C@H]2OC1 | > 16 | > 16 | > 8 | > 16
O=C1C(Nc2ccccc2F)=CC(=O)c2c1nc1n2C[C@@H]([C@H](O)CO)OC1 | > 16 | 5.15 | 3.74 | 5.51
COc1cccc(NC2=CC(=O)c3nc4n(c3C2=O)[C@H]2OC[C@@H](O)[C@H]2OC4)c1 | 4.28 | > 4 | 1.78 | 7.62
CCCN(CCC)C1=CC(=O)c2nc3n(c2C1=O)[C@H]1OC[C@@H](O)[C@H]1OC3 | > 16 | > 16 | > 16 | > 16
Cc1ccc(NC2=CC(=O)c3nc4n(c3C2=O)[C@H]2OC[C@@H](O)[C@H]2OC4)cc1 | 3.86 | 1.66 | 1.42 | 3.48
CCc1ccc(NC2=CC(=O)c3c(nc4n3[C@H]3OC[C@@H](O)[C@H]3OC4)C2=O)cc1 | 6.51 | 8.99 | 1.11 | > 4
O=C1C=C(NC2CCCCC2)C(=O)c2c1nc1n2[C@H]2OC[C@@H](O)[C@H]2OC1 | > 16 | > 8 | > 8 | > 16
O=C1C(Nc2ccccc2F)=CC(=O)c2c1nc1n2[C@H]2OC[C@@H](O)[C@H]2OC1 | 9.82 | > 4 | 2 | 2.66
O=C1C(Nc2ccccc2)=CC(=O)c2c1nc1n2C[C@@H]([C@H](O)CO)OC1 | 9.01 | 6.91 | 4.67 | 8.38
O=C1C=C(N2CCC2)C(=O)c2c1nc1n2[C@H]2OC[C@@H](O)[C@H]2OC1 | > 16 | > 16 | > 16 | > 16
O=C1C=C(Nc2ccc(C(F)(F)F)cc2)C(=O)c2c1nc1n2[C@H]2OC[C@@H](O)[C@H]2OC1 | > 8 | > 4 | 2.82 | 5.5
CCc1ccc(NC2=CC(=O)c3c(nc4n3C[C@@H]([C@H](O)CO)OC4)C2=O)cc1 | 4.59 | 6.57 | 3.69 | 4.54
O=C1C(Nc2cccc(Cl)c2)=CC(=O)c2c1nc1n2[C@H]2OC[C@@H](O)[C@H]2OC1 | 7.97 | 2.97 | 1.53 | 3.08
CCCN(CCC)C1=CC(=O)c2c(nc3n2[C@H]2OC[C@@H](O)[C@H]2OC3)C1=O | > 16 | > 16 | > 16 | > 16
O=C1C=C(Nc2ccc(C(F)(F)F)cc2)C(=O)c2c1nc1n2C[C@@H]([C@H](O)CO)OC1 | 6.09 | 11.3 | 6.52 | 6.73
O=C1C=C(NC2CC2)C(=O)c2c1nc1n2C[C@@H]([C@H](O)CO)OC1 | > 16 | > 16 | > 16 | > 16

The next lines start with results.

IC50 [1] [µM] | IC50 [2] [µM] | IC50 [3] [µM] | SMILES | IC50 [4] [µM]
> 16 | > 16 | > 16 | O=C1C(NC2CCCC2)=CC(=O)c2c1nc1n2[C@H]2OC[C@@H](O)[C@H]2OC1 | > 16
7.15 | > 16 | 8.9 | COc1ccc(NC2=CC(=O)c3nc4n(c3C2=O)C[C@@H]([C@H](O)CO)OC4)cc1 | > 16
4.78 | 5.42 | 1.68 | COc1ccc(NC2=CC(=O)c3nc4n(c3C2=O)[C@H]2OC[C@@H](O)[C@H]2OC4)cc1 | > 4
13.8 | 5.77 | 2.89 | O=C1C(Nc2cccc(Cl)c2)=CC(=O)c2c1nc1n2C[C@@H]([C@H](O)CO)OC1 | 5.99
5.22 | 4.33 | 2.02 | O=C1C(Nc2ccc(Br)cc2)=CC(=O)c2c1nc1n2[C@H]2OC[C@@H](O)[C@H]2OC1 | 1.98
6.59 | > 16 | 4.46 | O=C1C=C(Nc2cccc(F)c2)C(=O)c2c1nc1n2C[C@@H]([C@H](O)CO)OC1 | 7.93
3.11 | 1.43 | 1.11 | CCOc1ccc(NC2=CC(=O)c3nc4n(c3C2=O)[C@H]2OC[C@@H](O)[C@H]2OC4)cc1 | 3.21
5.86 | 7.41 | 4.11 | Cc1ccc(NC2=CC(=O)c3c(nc4n3C[C@@H]([C@H](O)CO)OC4)C2=O)cc1 | 5.08
3.29 | 5.94 | 3.67 | CCCc1ccc(NC2=CC(=O)c3nc4n(c3C2=O)C[C@@H]([C@H](O)CO)OC4)cc1 | 6.88
7.49 | 8.63 | 3.46 | CCOc1ccc(NC2=CC(=O)c3c(nc4n3C[C@@H]([C@H](O)CO)OC4)C2=O)cc1 | 7.84
8.92 | > 4 | 1.86 | O=C1C(Nc2ccc(C(F)(F)F)cc2)=CC(=O)c2c1nc1n2[C@H]2OC[C@@H](O)[C@H]2OC1 | 2.25
2.41 | 6.73 | 2.86 | CCc1ccc(NC2=CC(=O)c3nc4n(c3C2=O)C[C@@H]([C@H](O)CO)OC4)cc1 | 4.87
